{"source": "paper PMC7339578", "about": "“Multiple circulating alkaloids and saponins from intravenous Kang-Ai injection inhibit human cytochrome P450 and UDP-glucuronosyltransferase isozymes: potential drug–drug interactions” (Chinese Medicine, 2020)", "assay_type_in_all_cases": "in vitro ADME", "key": {"CYP1A2": {"target": "T1, CYP1A2 (Homo sapiens, UniProt P05177)", "T1 construct": "purchased Corning Biosciences 456203", "T1 sequence (P05177 1-516)": "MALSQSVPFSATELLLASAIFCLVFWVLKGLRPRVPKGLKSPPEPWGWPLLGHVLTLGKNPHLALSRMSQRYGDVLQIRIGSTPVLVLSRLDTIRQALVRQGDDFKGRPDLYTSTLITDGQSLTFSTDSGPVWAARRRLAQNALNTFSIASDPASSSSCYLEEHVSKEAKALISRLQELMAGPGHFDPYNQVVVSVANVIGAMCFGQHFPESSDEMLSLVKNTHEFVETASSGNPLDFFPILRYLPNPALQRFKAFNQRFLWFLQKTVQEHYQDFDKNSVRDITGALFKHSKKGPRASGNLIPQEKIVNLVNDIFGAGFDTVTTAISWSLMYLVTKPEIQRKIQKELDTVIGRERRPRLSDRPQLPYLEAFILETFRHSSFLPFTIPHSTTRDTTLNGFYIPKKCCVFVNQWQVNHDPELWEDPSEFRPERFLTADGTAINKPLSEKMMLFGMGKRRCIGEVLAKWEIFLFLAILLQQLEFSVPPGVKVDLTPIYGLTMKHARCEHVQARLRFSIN", "test": "Inhibition of recombinant CYP1A2 (probe phenacetin)", "protocol": "In this study, phenacetin (100 μM), coumarin (100 μM), bupropion (100 μM), paclitaxel (60 μM), tolbutamide (200 μM), mephenytoin (100 μM), chlorzoxazone (200 μM) and nifedipine (40 μM) have been used as the probe substrates for CYP1A2, 2A6, 2B6, 2C8, 2C9, 2C19, 2E1 and 3A4, respectively."}, "UGT1A1": {"target": "T2, UGT1A1 (Homo sapiens, UniProt P22309)", "T2 sequence (P22309 26-533)": "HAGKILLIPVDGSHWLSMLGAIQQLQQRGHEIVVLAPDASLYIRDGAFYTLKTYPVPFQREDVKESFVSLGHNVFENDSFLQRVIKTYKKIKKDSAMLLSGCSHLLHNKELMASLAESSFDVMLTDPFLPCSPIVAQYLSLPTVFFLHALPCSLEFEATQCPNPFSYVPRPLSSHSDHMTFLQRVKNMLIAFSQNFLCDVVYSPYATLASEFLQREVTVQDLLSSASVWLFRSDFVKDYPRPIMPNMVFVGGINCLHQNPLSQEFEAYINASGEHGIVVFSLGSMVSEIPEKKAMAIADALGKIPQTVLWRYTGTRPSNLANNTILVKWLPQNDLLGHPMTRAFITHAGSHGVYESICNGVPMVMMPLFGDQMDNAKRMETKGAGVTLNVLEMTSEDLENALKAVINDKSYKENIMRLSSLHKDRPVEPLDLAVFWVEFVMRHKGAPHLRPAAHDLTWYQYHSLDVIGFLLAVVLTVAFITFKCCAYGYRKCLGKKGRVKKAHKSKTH", "test": "Inhibition of expressed UGT1A1 (probe β-estradiol)", "protocol": "(§1) After centrifugation (13,800g, 10 min), the supernatant (8 μL) was obtained for determination by UHPLC system.\n(§2) Similarly, β-estradiol (60 μM), propofol (40 μM) and 4-MU (350 μM) were typically used as the substrates for UGT1A1, 1A9 and 2B7, respectively. After optimization of incubation conditions (Additional file 1: Fig. S2), the protein concentrations for UGT1A1, 1A9, and 2B7 were 0.125, 0.05, and 0.05 mg/mL, respectively."}, "UGT1A9": {"target": "T3, UGT1A9 (Homo sapiens, UniProt O60656)", "T3 sequence (O60656 26-530)": "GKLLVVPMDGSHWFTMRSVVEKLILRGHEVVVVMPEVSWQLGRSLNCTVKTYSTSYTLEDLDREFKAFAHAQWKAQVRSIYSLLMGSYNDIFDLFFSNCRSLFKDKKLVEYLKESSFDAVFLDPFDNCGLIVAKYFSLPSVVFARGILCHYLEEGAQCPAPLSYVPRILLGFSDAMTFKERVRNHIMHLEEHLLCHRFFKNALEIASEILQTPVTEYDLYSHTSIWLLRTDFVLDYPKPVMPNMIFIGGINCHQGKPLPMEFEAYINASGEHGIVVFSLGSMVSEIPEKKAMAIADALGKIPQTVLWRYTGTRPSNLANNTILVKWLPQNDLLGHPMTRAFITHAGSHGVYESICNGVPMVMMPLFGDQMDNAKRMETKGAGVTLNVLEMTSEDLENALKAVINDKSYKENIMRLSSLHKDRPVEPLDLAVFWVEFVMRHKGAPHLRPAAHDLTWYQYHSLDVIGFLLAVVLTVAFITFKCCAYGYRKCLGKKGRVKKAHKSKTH", "test": "Inhibition of expressed UGT1A9 (probe propofol)", "protocol": "as §1, §2"}, "[1]": {"conditions": "recombinant isozyme, mean ± SD of triplicate, unit not given (IC50 classes in μM), read-out: IC50 towards CYP1A2"}, "[2]": {"conditions": "recombinant isozyme, mean ± SD of triplicate, unit not given (IC50 classes in μM), read-out: IC50 towards UGT1A1"}, "[3]": {"conditions": "recombinant isozyme, mean ± SD of triplicate, unit not given (IC50 classes in μM), read-out: IC50 towards UGT1A9"}}, "note": "Where two headings read alike, the source gives them in different places.", "data": [{"smiles": "CC(C)(O)[C@@H]1CC[C@](C)([C@H]2[C@@H](O)C[C@@]3(C)[C@@H]4C[C@H](O[C@@H]5O[C@H](CO)[C@@H](O)[C@H](O)[C@H]5O)[C@H]5C(C)(C)[C@@H](O[C@@H]6OC[C@@H](O)[C@H](O)[C@H]6O)CC[C@@]56C[C@@]46CC[C@]23C)O1", "note": "[Compound B2, Astragaloside IV]", "values": [{"measurement": "IC50", "setting": "CYP1A2; [1]", "value": "> 100", "unit": "µM"}, {"measurement": "IC50", "setting": "UGT1A1; [2]", "value": "> 100", "unit": "µM"}, {"measurement": "IC50", "setting": "UGT1A9; [3]", "value": "> 100", "unit": "µM"}]}, {"smiles": "CC(C)=CCC[C@](C)(O[C@@H]1O[C@H](CO)[C@@H](O)[C@H](O)[C@H]1O)[C@H]1CC[C@]2(C)[C@@H]1[C@H](O)C[C@@H]1[C@@]3(C)CC[C@H](O[C@@H]4O[C@H](CO)[C@@H](O)[C@H](O)[C@H]4O[C@@H]4O[C@H](CO)[C@@H](O)[C@H](O)[C@H]4O)C(C)(C)[C@@H]3CC[C@]12C", "note": "[Compound D2, Ginsenoside Rd]", "values": [{"measurement": "IC50", "setting": "CYP1A2; [1]", "value": "> 100", "unit": "µM"}, {"measurement": "IC50", "setting": "UGT1A1; [2]", "value": "> 100", "unit": "µM"}, {"measurement": "IC50", "setting": "UGT1A9; [3]", "value": "> 100", "unit": "µM"}]}, {"smiles": "CC(C)=CCC[C@](C)(O[C@@H]1O[C@H](CO[C@@H]2O[C@H](CO)[C@@H](O)[C@H](O)[C@H]2O)[C@@H](O)[C@H](O)[C@H]1O)[C@H]1CC[C@]2(C)[C@@H]1[C@H](O)C[C@@H]1[C@@]3(C)CC[C@H](O[C@@H]4O[C@H](CO)[C@@H](O)[C@H](O)[C@H]4O[C@@H]4O[C@H](CO)[C@@H](O)[C@H](O)[C@H]4O)C(C)(C)[C@@H]3CC[C@]12C", "note": "[Compound D5, Ginsenoside Rb1]", "values": [{"measurement": "IC50", "setting": "CYP1A2; [1]", "value": "> 100", "unit": "µM"}, {"measurement": "IC50", "setting": "UGT1A1; [2]", "value": "> 100", "unit": "µM"}, {"measurement": "IC50", "setting": "UGT1A9; [3]", "value": "> 100", "unit": "µM"}]}, {"smiles": "CC(C)=CCC[C@](C)(O)[C@H]1CC[C@]2(C)[C@@H]1[C@H](O)C[C@@H]1[C@@]3(C)CC[C@H](O)C(C)(C)[C@@H]3[C@@H](O[C@@H]3O[C@H](CO)[C@@H](O)[C@H](O)[C@H]3O[C@@H]3O[C@H](CO)[C@@H](O)[C@H](O)[C@H]3O)C[C@]12C", "note": "[Compound C7, Ginsenoside Rf]", "values": [{"measurement": "IC50", "setting": "CYP1A2; [1]", "value": "> 100", "unit": "µM"}, {"measurement": "IC50", "setting": "UGT1A1; [2]", "value": "> 100", "unit": "µM"}, {"measurement": "IC50", "setting": "UGT1A9; [3]", "value": "> 100", "unit": "µM"}]}, {"smiles": "O=C1CCC[C@@H]2[C@H]3CCCN4CCC[C@@H](CN12)[C@@H]34", "note": "[Compound A1, Matrine]", "values": [{"measurement": "IC50", "setting": "CYP1A2", "value": "> 100", "unit": "µM"}, {"measurement": "IC50", "setting": "UGT1A1", "value": "> 100", "unit": "µM"}, {"measurement": "IC50", "setting": "UGT1A9", "value": "> 100", "unit": "µM"}]}, {"smiles": "CC(C)=CCC[C@](C)(O[C@@H]1O[C@H](CO)[C@@H](O)[C@H](O)[C@H]1O)[C@H]1CC[C@]2(C)[C@@H]1[C@H](O)C[C@@H]1[C@@]3(C)CC[C@H](O)C(C)(C)[C@@H]3[C@@H](O[C@@H]3O[C@H](CO)[C@@H](O)[C@H](O)[C@H]3O[C@@H]3O[C@@H](C)[C@H](O)[C@@H](O)[C@H]3O)C[C@]12C", "note": "[Compound C9, Ginsenoside Re]", "values": [{"measurement": "IC50", "setting": "CYP1A2; [1]", "value": "> 100", "unit": "µM"}, {"measurement": "IC50", "setting": "UGT1A1; [2]", "value": "> 100", "unit": "µM"}, {"measurement": "IC50", "setting": "UGT1A9; [3]", "value": "> 100", "unit": "µM"}]}, {"smiles": "CC(C)=CCC[C@](C)(O[C@@H]1O[C@H](CO)[C@@H](O)[C@H](O)[C@H]1O)[C@H]1CC[C@]2(C)[C@@H]1[C@H](O)C[C@@H]1[C@@]3(C)CC[C@H](O)C(C)(C)[C@@H]3[C@@H](O[C@@H]3O[C@H](CO)[C@@H](O)[C@H](O)[C@H]3O)C[C@]12C", "note": "[Compound C6, Ginsenoside Rg1]", "values": [{"measurement": "IC50", "setting": "CYP1A2; [1]", "value": "> 100", "unit": "µM"}, {"measurement": "inhibition type (smallest AIC and SC)", "setting": "UGT1A1; UGT1A1", "value": "competitive inhibition"}, {"measurement": "Ki", "setting": "UGT1A1; UGT1A1, competitive model", "value": "141 ± 10.5", "unit": "µM"}, {"measurement": "Ki", "setting": "UGT1A1; UGT1A1, mixed-type model", "value": "147 ± 29.9", "unit": "µM"}, {"measurement": "α", "setting": "UGT1A1; UGT1A1, mixed-type model", "value": "8.3 ± 37.2"}, {"measurement": "Ki", "setting": "UGT1A1; UGT1A1, noncompetitive model", "value": "187 ± 12.7", "unit": "µM"}, {"measurement": "Cmax/Ki ([I]/Ki)", "setting": "UGT1A1; UGT1A1, selected model, rat plasma Cmax", "value": 0.01}, {"measurement": "IC50", "setting": "UGT1A1; [2]", "value": "92.2 ± 40", "unit": "µM"}, {"measurement": "IC50", "setting": "UGT1A1; β-estradiol 60 μM, read-out: IC50 against UGT1A1", "value": 92.2, "unit": "µM"}, {"measurement": "IC50", "setting": "UGT1A9; [3]", "value": "> 100", "unit": "µM"}]}, {"smiles": "CC(C)=CCC[C@](C)(O[C@@H]1O[C@H](CO[C@@H]2O[C@@H](CO)[C@H](O)[C@H]2O)[C@@H](O)[C@H](O)[C@H]1O)[C@H]1CC[C@]2(C)[C@@H]1[C@H](O)C[C@@H]1[C@@]3(C)CC[C@H](O[C@@H]4O[C@H](CO)[C@@H](O)[C@H](O)[C@H]4O[C@@H]4O[C@H](CO)[C@@H](O)[C@H](O)[C@H]4O)C(C)(C)[C@@H]3CC[C@]12C", "note": "[Compound D3, Ginsenoside Rc]", "values": [{"measurement": "IC50", "setting": "CYP1A2; [1]", "value": "> 100", "unit": "µM"}, {"measurement": "IC50", "setting": "UGT1A1; [2]", "value": "> 100", "unit": "µM"}, {"measurement": "inhibition type (smallest AIC and SC)", "setting": "UGT1A9; UGT1A9", "value": "Noncompetitive inhibition"}, {"measurement": "Ki", "setting": "UGT1A9; UGT1A9, competitive model", "value": "8.9 ± 1.5", "unit": "µM"}, {"measurement": "Ki", "setting": "UGT1A9; UGT1A9, mixed-type model", "value": "27 ± 7.5", "unit": "µM"}, {"measurement": "α", "setting": "UGT1A9; UGT1A9, mixed-type model", "value": "0.7 ± 0.3"}, {"measurement": "Ki", "setting": "UGT1A9; UGT1A9, noncompetitive model", "value": "22.3 ± 1.4", "unit": "µM"}, {"measurement": "Cmax/Ki ([I]/Ki)", "setting": "UGT1A9; UGT1A9, selected model, rat plasma Cmax", "value": 0.04}, {"measurement": "IC50", "setting": "UGT1A9; propofol 40 μM, read-out: IC50 against UGT1A9", "value": 29, "unit": "µM"}, {"measurement": "IC50", "setting": "UGT1A9; [3]", "value": "29 ± 12.7", "unit": "µM"}]}, {"smiles": "O=C1CCC[C@@H]2[C@H]3CCC[N+]4([O-])CCC[C@@H](CN12)[C@@H]34", "note": "(some centres unmarked) [Compound A3, Oxymatrine]", "values": [{"measurement": "IC50", "setting": "CYP1A2", "value": "> 100", "unit": "µM"}, {"measurement": "IC50", "setting": "UGT1A1; IC50 towards UGT1A1, recombinant isozyme, mean ± SD of triplicate, unit not given (IC50 classes in μM)", "value": "> 100", "unit": "µM"}, {"measurement": "IC50", "setting": "UGT1A9; IC50 towards UGT1A9, recombinant isozyme, mean ± SD of triplicate, unit not given (IC50 classes in μM)", "value": "> 100", "unit": "µM"}]}]}
